Reference: ChEMBL document CHEMBL1201862, “PubChem BioAssay data set” (2004)
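Assay format: 96-well plates, 48-hour exposure. GI50: concentration for 50% inhibition of growth.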 The source made the active and inactive calls. Cut-off read from the data, not from the text of the source: active = GI50 up to about 1.1 µM and inactive = higher.

Columns and labels:
Test in all cases: NCI-60 cell line screen, 48 h
CAKI-1 = tested on: CAKI-1
UACC-62 = tested on: UACC-62
SK-MEL-2 = tested on: SK-MEL-2
NCI/ADR-RES = tested on: NCI/ADR-RES
SNB-75 = tested on: SNB-75
HOP-92 = tested on: HOP-92
SR = tested on: SR
HCC 2998 = tested on: HCC 2998
SK-MEL-28 = tested on: SK-MEL-28
Malme-3M = tested on: Malme-3M
HCT-15 = tested on: HCT-15
KM12 = tested on: KM12
NCI-H226 = tested on: NCI-H226
RXF 393 = tested on: RXF 393
786-0 = tested on: 786-0
MDA-N = tested on: MDA-N
SK-OV-3 = tested on: SK-OV-3
DU-145 = tested on: DU-145
SK-MEL-5 = tested on: SK-MEL-5
MDA-MB-435 = tested on: MDA-MB-435

Compound | GI50 (CAKI-1) | GI50 (UACC-62) | GI50 (SK-MEL-2) | GI50 (NCI/ADR-RES) | GI50 (SNB-75) | GI50 (HOP-92) | GI50 (SR) | GI50 (HCC 2998) | GI50 (SK-MEL-28) | GI50 (Malme-3M) | GI50 (HCT-15) [µM] | GI50 (KM12) | GI50 (NCI-H226) | GI50 (RXF 393) | GI50 (786-0) | GI50 (MDA-N) | GI50 (SK-OV-3) | GI50 (DU-145) | GI50 (SK-MEL-5) | GI50 (MDA-MB-435)
CC(C)(C)OCC1NC(=O)[C@@H]2Cc3c([nH]c4ccccc34)C(c3ccccc3)N2C1=O (stereo partly drawn) | > 50 µM (inactive) | > 50 µM (inactive) | > 50 µM (inactive) | > 50 µM (inactive) | > 50 µM (inactive) | > 50 µM (inactive) | > 22.4 µM (inactive) | > 50 µM (inactive) | > 50 µM (inactive) | > 50 µM (inactive) | > 50 | > 50 µM (inactive) | > 27.4 µM (inactive) | > 50 µM (inactive) | > 50 µM (inactive) | > 50 µM (inactive) | > 50 µM (inactive) | > 50 µM (inactive) | > 50 µM (inactive) | > 50 µM (inactive)
COc1cccc2c1Cc1cc(-c3ccccc3)[n+](C)n1-2 | 66.8 µM (inactive) | 15 µM (inactive) | 17.5 µM (inactive) | 84.7 µM (inactive) | 20 µM (inactive) | 13.7 µM (inactive) | 7.57 µM (inactive) | 10.2 µM (inactive) | 46.1 µM (inactive) | 10.3 µM (inactive) | 31.3 | 11.5 µM (inactive) | 11.7 µM (inactive) | 19 µM (inactive) | 7.24 µM (inactive) | 11.9 µM (inactive) | 33.2 µM (inactive) | 30.1 µM (inactive) | 8.89 µM (inactive) | 11.8 µM (inactive)
CCOC(CN(C)C(=O)OCC(Cl)(Cl)Cl)OCC | 34.1 µM (inactive) | > 100 µM (inactive) | – | 39.4 µM (inactive) | 83.4 µM (inactive) | 33.9 µM (inactive) | 34.2 µM (inactive) | > 100 µM (inactive) | > 100 µM (inactive) | – | 77.8 | > 100 µM (inactive) | 54.6 µM (inactive) | 30.7 µM (inactive) | > 100 µM (inactive) | 81.3 µM (inactive) | > 100 µM (inactive) | > 100 µM (inactive) | 33.7 µM (inactive) | > 100 µM (inactive)
O=C(O)c1ccccc1CC(Cc1ccccc1)C(=O)O (stereo not drawn) | > 100 µM (inactive) | – | > 100 µM (inactive) | > 100 µM (inactive) | > 100 µM (inactive) | > 100 µM (inactive) | > 100 µM (inactive) | > 100 µM (inactive) | > 100 µM (inactive) | > 100 µM (inactive) | > 100 | > 100 µM (inactive) | > 100 µM (inactive) | > 100 µM (inactive) | > 100 µM (inactive) | > 100 µM (inactive) | > 100 µM (inactive) | > 100 µM (inactive) | > 100 µM (inactive) | > 100 µM (inactive)
O=C(O)[C@H](CCC[C@H]1C(=O)O[C@H](c2ccccc2)[C@H](c2ccccc2)N1C(=O)OCc1ccccc1)N[C@@H](c1ccccc1)[C@H](O)c1ccccc1 | > 100 µM (inactive) | 22.1 µM (inactive) | 20 µM (inactive) | > 100 µM (inactive) | 17 µM (inactive) | 22.3 µM (inactive) | 20.7 µM (inactive) | 21 µM (inactive) | 19.8 µM (inactive) | 21.2 µM (inactive) | > 100 | 19.7 µM (inactive) | – | 22.6 µM (inactive) | 32.5 µM (inactive) | 21.7 µM (inactive) | 61.8 µM (inactive) | > 100 µM (inactive) | 18.5 µM (inactive) | 20.7 µM (inactive)
CN(Cc1cnc2nc(N)nc(N)c2n1)c1ccc(C(=O)NC(CCC(=O)NC(P(=O)(O)O)P(=O)(O)O)C(=O)O)cc1 (stereo not drawn) | 12.4 µM (inactive) | > 100 µM (inactive) | 6.07 µM (inactive) | 40.8 µM (inactive) | > 100 µM (inactive) | > 100 µM (inactive) | 9.06 µM (inactive) | – | 83 µM (inactive) | > 100 µM (inactive) | 22.9 | 8.34 µM (inactive) | > 100 µM (inactive) | 4.79 µM (inactive) | 7.31 µM (inactive) | 16.2 µM (inactive) | – | 45.3 µM (inactive) | 45.5 µM (inactive) | 30 µM (inactive)
Cc1c(C)c2c(c(N)c1C#N)C(=O)N(Nc1ccccc1)C2=O | > 100 µM (inactive) | 51.4 µM (inactive) | 96.8 µM (inactive) | 52.4 µM (inactive) | 30.6 µM (inactive) | 28.5 µM (inactive) | 66.1 µM (inactive) | > 100 µM (inactive) | > 100 µM (inactive) | 51.5 µM (inactive) | > 100 | 36.1 µM (inactive) | 61.2 µM (inactive) | 20 µM (inactive) | 51.9 µM (inactive) | > 100 µM (inactive) | – | > 100 µM (inactive) | > 100 µM (inactive) | 72.8 µM (inactive)
